This note sets out measurements from ChEMBL document CHEMBL1201862, “PubChem BioAssay data set” (2004).

For orientation: IC50 means the concentration needed to halve the response being measured. One may read the AC50 as the midpoint of the concentration-response curve, whichever way the signal moves. One may read the EC50 as the concentration that produces a half-maximal response. For orientation: CC50 means the concentration giving 50% cytotoxicity. As usually defined, the Ki is a measure of affinity in units of concentration, obtained from inhibition or displacement.

Test [1] deals with T1, Mannose-6-phosphate isomerase (Homo sapiens, UniProt P34949).
T1 sequence (P34949 whole entry): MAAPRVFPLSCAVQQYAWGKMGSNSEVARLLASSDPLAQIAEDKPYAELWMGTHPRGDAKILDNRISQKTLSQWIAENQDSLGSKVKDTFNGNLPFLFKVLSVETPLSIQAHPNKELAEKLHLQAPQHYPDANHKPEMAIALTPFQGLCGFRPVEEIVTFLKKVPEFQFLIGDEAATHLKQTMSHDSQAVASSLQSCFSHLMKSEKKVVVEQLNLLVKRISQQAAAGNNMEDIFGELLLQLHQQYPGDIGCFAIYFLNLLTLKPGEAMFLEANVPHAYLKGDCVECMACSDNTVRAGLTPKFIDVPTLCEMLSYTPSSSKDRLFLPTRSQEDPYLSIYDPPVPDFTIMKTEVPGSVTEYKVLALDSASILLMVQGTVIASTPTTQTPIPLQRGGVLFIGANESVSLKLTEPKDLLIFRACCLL
Briefly: human PMI inhibitors, high substrate, primary screen, biochemical, fluorescence intensity, high mannose 6-phosphate (AID 1220).

The target of test [2] is Apoptotic protease-activating factor 1 (Homo sapiens, UniProt O14727). Type of test: functional.
Another test deals with Cytochrome P450 2D6 (Homo sapiens, UniProt P10635).
The target of another test is Cytochrome P450 2C9 (Homo sapiens, UniProt P11712).
The target in test [3] is T2, Sentrin-specific protease 6 (Homo sapiens, UniProt Q9GZR1).
T2 sequence (Q9GZR1 whole entry): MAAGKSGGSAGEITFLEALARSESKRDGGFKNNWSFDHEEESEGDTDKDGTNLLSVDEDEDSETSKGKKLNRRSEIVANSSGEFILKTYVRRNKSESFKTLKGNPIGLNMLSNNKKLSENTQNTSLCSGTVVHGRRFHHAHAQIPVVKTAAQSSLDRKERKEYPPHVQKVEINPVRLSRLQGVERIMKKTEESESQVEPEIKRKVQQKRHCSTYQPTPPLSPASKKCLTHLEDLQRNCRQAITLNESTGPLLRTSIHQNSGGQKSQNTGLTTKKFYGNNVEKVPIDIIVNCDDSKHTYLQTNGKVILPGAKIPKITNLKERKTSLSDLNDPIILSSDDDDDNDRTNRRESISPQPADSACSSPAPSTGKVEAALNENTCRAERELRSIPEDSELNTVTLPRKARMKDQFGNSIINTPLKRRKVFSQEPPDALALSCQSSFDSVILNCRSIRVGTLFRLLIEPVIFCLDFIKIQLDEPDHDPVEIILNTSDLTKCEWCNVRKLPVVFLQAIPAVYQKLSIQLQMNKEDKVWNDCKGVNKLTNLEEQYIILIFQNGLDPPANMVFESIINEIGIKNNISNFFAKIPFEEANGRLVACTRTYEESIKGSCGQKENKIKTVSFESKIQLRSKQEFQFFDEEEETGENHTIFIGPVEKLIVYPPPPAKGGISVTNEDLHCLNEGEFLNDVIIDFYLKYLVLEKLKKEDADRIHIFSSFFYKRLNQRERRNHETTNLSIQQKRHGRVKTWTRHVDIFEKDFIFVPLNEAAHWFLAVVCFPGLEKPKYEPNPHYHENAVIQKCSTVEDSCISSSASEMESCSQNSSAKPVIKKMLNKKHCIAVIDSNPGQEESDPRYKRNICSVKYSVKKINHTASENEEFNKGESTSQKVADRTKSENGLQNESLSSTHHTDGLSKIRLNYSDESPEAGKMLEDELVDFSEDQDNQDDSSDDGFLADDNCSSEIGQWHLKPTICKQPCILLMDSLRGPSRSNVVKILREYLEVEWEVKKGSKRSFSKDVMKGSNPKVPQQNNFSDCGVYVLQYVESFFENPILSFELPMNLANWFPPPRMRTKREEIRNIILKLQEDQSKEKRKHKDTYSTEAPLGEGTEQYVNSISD
Briefly: SAR Analysis of small molecule inhibitors of Sentrin-specific protease 6 (SENP6) using a Luminescent assay. [Related pubchem assays (depositor defined):AID2582, AID2599]. Format: functional.

For test [4], the target named is T3, Caspase-3 (Homo sapiens, UniProt P42574).
T3 sequence (P42574 whole entry): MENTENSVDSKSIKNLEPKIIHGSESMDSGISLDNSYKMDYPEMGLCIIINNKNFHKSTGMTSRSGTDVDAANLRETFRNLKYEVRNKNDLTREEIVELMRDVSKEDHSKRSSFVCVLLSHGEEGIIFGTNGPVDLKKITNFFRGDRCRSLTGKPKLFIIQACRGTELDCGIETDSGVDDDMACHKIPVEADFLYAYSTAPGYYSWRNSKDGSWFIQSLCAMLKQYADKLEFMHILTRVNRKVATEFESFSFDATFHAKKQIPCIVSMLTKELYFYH
Briefly: SAR Analysis of small molecule inhibitors of Sentrin-specific proteases (SENPs) using a Caspase-3 Selectivity assay. [Related pubchem assays (depositor defined):AID2540, AID2599, AID434973, AID489001]. Type of test: functional.

In test [5] the target is T4, Sentrin-specific protease 7 (Homo sapiens, UniProt Q9BQF6).
T4 sequence (Q9BQF6 whole entry): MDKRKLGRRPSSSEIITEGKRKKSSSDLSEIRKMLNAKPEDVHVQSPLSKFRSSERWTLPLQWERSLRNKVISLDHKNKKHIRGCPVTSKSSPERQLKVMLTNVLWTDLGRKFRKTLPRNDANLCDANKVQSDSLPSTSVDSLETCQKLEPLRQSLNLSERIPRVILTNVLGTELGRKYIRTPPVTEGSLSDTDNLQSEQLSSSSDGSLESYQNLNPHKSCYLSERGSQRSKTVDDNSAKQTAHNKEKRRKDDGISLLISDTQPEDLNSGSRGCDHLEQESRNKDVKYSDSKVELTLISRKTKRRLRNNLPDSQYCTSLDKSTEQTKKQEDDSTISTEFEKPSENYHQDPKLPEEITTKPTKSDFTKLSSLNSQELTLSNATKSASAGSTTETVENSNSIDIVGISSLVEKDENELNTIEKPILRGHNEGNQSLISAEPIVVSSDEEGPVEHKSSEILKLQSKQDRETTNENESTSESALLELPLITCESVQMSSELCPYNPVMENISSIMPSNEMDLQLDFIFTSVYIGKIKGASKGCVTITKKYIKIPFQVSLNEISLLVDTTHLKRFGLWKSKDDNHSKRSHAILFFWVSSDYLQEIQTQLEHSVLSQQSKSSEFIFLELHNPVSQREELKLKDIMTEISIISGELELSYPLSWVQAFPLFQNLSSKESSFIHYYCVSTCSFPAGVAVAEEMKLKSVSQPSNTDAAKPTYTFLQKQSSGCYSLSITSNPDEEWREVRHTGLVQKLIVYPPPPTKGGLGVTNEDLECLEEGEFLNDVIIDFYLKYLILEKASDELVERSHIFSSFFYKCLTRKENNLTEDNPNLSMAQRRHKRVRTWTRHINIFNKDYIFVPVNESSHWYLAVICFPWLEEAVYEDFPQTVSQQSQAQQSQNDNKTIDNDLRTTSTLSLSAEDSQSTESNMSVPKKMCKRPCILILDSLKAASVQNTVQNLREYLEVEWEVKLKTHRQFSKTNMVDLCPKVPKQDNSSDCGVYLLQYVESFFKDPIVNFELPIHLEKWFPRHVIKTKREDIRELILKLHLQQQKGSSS
The test is described as follows: SENP7 protease inhibitors, SAR follow-up, biochemical, luminescence (AID 504497). Type of test: functional.

The target of test [6] is T5, Sentrin-specific protease 8 (Homo sapiens, UniProt Q96LD8).
T5 sequence (Q96LD8 whole entry): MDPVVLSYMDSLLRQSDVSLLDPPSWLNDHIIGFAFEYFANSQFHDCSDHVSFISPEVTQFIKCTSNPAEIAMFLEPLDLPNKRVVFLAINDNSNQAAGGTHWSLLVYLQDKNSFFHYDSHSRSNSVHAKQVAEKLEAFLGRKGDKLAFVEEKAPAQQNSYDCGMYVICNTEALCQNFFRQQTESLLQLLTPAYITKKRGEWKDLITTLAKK
Briefly: SENP8 protease inhibitors, SAR follow-up, biochemical, luminescence (AID 504501). Type of test: functional.

The target of test [7] is T4, Sentrin-specific protease 7. Type of test: functional.
Test [8] concerns the target T5, Sentrin-specific protease 8. Format: functional.
Test [9] concerns the target T3, Caspase-3. Format: functional.
In test [10] the target is T2, Sentrin-specific protease 6. Type of test: functional.
The target in test [11] is FAD-linked sulfhydryl oxidase ALR (Homo sapiens, UniProt P55789). The test is described as follows: inhibitors of human ALR sulfhydryl oxidase, dose response, biochemical, H2O2 detection, luminescence, cherry-pick (AID 493248).
Test [12] can be described thus: Luminescence Cell-Based Dose Response HTS to Identify Activators of Luciferase Translation or Activity in H4 […] Cells. [Related pubchem assays: 1829 (Project Summary), 1814 (Primary HTS)]. Format: functional.
Another test deals with H4. Briefly: Luminescence Cell-Based Dose Response HTS to Identify Activators of 5'UTR Stem-Loop Driven Prion Protein mRNA Translation in H4 Neuroglioblastoma Cells. [Related pubchem assays: 1829 (Project Summary), 1814 (Primary HTS)]. Type of test: functional. The following applies: Homo sapiens.
The test system of another test is Vero. Briefly: Vero cell cytotoxicity, cytotoxicity control for flavivirus capping enzyme inhibitors (AID 588742). Format: functional. The following applies: Chlorocebus sabaeus.
Test [13] can be described thus: Luminescence Cell-Based Dose Confirmation HTS to Identify Activators of 5'UTR Stem-Loop Driven Alpha-Synuclein mRNA Translation in H4 Neuroglioblastoma Cells. [Related pubchem assays: 1829 (Project Summary), 1814 (Primary HTS)]. Format: functional.
Another test deals with T6, Aurora kinase A (Homo sapiens, UniProt O14965).
T6 sequence (O14965 whole entry): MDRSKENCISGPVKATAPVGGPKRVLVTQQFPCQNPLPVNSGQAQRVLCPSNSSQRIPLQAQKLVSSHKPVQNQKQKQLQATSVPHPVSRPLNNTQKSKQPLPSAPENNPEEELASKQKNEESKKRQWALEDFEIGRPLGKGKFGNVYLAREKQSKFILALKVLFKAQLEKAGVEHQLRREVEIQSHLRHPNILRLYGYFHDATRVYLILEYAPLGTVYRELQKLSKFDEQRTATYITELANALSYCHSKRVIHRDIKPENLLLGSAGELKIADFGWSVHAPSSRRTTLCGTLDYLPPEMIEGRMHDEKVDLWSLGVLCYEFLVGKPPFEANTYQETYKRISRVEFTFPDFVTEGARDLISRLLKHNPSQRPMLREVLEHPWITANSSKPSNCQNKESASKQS
Type of test: functional.

The target in test [14] is Cyclin-dependent kinase 19 (Homo sapiens, UniProt Q9BWU1). Briefly: Navigating the Kinome. Panel member name: CDC2L6. Type of test: functional.
The target of test [15] is Vascular endothelial growth factor receptor 2 (Homo sapiens, UniProt P35968). Format: functional.
The target in another test is Aurora kinase B (Homo sapiens, UniProt Q96GD4). Type of test: functional.

The structures appear in SMILES notation. Calls of active or inactive are those of the source.

Sequence of Vascular endothelial growth factor receptor 2 (P35968 whole entry): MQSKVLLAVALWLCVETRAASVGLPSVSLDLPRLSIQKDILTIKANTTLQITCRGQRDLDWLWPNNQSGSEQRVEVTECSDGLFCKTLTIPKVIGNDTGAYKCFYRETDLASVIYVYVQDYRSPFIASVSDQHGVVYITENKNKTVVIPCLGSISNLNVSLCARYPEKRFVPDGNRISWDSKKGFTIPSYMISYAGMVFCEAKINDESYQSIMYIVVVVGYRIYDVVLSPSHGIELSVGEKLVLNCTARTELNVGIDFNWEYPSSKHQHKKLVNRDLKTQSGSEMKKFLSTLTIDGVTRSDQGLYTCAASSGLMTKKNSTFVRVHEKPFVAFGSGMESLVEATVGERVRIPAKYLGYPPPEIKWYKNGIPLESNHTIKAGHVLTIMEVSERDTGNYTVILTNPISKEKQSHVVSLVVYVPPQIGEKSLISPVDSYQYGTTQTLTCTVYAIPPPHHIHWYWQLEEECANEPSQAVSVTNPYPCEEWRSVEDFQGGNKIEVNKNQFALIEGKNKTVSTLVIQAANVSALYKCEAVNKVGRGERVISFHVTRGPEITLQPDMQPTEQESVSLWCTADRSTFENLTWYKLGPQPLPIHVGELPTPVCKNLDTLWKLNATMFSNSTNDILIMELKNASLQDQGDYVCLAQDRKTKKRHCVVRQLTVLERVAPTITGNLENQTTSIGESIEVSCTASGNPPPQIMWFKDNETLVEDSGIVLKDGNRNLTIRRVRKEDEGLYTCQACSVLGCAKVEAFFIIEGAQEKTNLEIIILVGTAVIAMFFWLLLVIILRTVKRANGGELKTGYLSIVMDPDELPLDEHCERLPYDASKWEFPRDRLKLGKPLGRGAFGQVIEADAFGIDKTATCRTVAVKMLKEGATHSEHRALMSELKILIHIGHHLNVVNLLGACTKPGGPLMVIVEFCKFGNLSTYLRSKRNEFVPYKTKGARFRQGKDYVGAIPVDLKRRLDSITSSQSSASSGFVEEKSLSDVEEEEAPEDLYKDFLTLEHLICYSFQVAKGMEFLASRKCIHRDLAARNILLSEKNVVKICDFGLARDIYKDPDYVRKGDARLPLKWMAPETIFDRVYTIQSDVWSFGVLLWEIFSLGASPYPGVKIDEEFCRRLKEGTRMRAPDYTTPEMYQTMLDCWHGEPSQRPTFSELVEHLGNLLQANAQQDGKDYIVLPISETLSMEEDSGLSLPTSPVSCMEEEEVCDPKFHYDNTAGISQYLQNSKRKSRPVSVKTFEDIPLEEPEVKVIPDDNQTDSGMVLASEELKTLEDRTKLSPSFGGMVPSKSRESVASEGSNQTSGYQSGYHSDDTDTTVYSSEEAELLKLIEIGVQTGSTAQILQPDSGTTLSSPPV
Sequence of Apoptotic protease-activating factor 1 (O14727 whole entry): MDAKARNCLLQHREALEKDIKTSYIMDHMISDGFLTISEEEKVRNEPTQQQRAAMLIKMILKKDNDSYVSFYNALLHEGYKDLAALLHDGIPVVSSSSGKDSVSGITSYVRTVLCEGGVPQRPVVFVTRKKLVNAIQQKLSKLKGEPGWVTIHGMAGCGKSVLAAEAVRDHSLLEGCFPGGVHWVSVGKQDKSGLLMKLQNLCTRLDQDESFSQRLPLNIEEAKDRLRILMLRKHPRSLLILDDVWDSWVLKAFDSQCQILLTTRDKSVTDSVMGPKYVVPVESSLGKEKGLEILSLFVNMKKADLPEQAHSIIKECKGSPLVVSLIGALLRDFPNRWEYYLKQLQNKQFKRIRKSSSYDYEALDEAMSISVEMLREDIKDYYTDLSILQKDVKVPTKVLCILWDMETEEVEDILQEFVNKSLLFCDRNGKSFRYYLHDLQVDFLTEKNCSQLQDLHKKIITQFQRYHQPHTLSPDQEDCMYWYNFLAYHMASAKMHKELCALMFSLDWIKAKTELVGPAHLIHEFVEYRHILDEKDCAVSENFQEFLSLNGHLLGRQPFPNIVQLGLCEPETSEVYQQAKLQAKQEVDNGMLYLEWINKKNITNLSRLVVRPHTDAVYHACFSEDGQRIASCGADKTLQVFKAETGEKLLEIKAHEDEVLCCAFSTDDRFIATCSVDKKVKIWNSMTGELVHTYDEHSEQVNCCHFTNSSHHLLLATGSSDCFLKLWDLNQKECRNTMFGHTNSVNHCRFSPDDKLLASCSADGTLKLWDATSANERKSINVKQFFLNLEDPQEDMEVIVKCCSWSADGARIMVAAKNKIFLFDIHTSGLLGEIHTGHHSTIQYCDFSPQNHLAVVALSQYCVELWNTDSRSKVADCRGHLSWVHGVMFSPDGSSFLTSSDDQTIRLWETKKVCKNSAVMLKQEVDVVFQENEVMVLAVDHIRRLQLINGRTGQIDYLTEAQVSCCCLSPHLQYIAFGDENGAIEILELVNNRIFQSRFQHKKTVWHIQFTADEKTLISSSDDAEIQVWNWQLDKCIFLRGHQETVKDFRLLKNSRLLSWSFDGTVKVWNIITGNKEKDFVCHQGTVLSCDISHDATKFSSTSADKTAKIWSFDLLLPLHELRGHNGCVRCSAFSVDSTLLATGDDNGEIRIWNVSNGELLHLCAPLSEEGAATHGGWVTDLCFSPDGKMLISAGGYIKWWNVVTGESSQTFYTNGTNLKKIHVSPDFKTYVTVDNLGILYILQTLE
Sequence of Aurora kinase B (Q96GD4 whole entry): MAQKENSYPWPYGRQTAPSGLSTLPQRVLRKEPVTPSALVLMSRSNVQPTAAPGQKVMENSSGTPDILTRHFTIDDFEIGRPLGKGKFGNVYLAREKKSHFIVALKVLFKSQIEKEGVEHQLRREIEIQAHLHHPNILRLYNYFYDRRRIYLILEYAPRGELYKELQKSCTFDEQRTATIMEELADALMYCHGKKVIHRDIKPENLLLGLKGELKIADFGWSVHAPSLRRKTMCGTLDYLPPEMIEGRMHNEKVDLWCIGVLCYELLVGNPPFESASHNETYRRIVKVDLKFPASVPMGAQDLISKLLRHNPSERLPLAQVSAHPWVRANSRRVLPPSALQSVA
Sequence of FAD-linked sulfhydryl oxidase ALR (P55789 whole entry): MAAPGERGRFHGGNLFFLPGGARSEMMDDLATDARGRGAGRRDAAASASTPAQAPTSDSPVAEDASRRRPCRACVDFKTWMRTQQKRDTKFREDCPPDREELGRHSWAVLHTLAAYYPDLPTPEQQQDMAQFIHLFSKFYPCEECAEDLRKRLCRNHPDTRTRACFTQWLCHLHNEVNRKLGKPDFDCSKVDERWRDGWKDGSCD
Sequence of Cyclin-dependent kinase 19 (Q9BWU1 whole entry): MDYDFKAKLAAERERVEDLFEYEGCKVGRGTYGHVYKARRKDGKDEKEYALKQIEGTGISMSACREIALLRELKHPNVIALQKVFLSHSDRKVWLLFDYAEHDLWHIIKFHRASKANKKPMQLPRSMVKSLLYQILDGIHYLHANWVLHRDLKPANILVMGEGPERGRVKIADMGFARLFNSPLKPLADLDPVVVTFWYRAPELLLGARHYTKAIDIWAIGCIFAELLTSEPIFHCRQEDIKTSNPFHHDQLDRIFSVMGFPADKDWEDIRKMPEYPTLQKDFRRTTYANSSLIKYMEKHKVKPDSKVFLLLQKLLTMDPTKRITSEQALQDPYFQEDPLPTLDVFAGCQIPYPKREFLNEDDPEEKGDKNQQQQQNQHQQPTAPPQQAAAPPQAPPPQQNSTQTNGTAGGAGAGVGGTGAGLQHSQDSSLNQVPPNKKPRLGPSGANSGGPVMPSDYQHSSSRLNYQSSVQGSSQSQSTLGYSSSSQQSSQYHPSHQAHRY
Sequence of Cytochrome P450 2D6 (P10635 whole entry): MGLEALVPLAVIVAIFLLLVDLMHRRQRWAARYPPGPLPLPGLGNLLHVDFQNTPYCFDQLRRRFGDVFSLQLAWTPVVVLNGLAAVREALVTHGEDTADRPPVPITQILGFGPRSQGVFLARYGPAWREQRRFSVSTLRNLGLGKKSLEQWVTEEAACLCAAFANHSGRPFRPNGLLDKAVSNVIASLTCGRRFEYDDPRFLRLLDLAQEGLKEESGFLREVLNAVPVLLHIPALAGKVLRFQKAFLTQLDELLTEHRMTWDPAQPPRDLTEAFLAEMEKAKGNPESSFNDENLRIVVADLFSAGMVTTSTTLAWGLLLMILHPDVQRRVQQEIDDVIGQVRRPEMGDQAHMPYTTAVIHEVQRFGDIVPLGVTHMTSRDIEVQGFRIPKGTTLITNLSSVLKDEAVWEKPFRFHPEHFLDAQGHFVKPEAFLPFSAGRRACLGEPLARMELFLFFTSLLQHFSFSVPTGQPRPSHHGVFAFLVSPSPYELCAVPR
Sequence of Cytochrome P450 2C9 (P11712 whole entry): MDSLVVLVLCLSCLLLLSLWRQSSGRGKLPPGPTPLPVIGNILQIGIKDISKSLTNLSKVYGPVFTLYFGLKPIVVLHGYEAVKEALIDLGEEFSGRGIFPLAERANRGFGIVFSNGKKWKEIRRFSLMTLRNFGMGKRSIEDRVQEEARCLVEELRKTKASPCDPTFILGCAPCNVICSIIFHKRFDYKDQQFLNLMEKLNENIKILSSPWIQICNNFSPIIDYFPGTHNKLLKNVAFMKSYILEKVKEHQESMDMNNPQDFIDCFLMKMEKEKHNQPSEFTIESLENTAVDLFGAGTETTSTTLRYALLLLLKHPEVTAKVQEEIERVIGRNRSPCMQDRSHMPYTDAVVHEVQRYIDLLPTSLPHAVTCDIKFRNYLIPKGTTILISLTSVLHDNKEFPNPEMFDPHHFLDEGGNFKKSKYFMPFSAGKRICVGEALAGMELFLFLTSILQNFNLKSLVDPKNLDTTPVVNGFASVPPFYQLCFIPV

For the compound `O=C1OC(Nc2ccc3ncccc3c2)c2ccccc21` (centres undefined), the IC50 in [1] is > 50 µM (not active); in test [2], 32.9 µM (active).
`Cc1ccc(-c2nn3c(C)nnc3c3ccccc23)cc1S(=O)(=O)NCc1ccccc1`: in test [2], the IC50 is 9.2 µM (active). Moreover, the AC50 at Cytochrome P450 2D6 is 15.8 µM (inconclusive); on Cytochrome P450 2C9, 1.26 µM (inconclusive).
Take `O=C(/C=C/c1ccc(OC2CSC2)cc1)c1ccccc1`: the IC50 in test [3] was 7.59 µM (active); at Caspase-3 [4], 23.3 µM (active); in [5] it was 5.23 µM (active); in [6], 8.36 µM (active).
For `Cc1ccc(NC(=O)CCc2c(C)nn(-c3ccc(N4CCCCC4)nn3)c2C)cc1F`, the IC50 was 7.86 µM (active) in test [7], 29.4 µM (active) in test [8], 21.6 µM (active) at Caspase-3 [9] and 24.4 µM (active) in [10].
For `O=C1c2sc3nc4n(c(=O)c3c2CCC1Br)CCCCC4` (centres undefined), in test [11], the concentration at half-maximal activity (AC50) was 1.7 µM (active). Also, the EC50 is 8.79 µM (active) in test [12], 7.07 µM (active) in the test on H4 and 5.38 µM (active) in test [13]. The CC50 with Vero is 24.2 µM (active).
Take `Nc1ccc(-c2nc3cc([N+](=O)[O-])ccc3[nH]2)cc1`: the IC50 in test [7] is 8.59 µM (active); in test [8], 23.8 µM (active); at Caspase-3 [9], 17.2 µM (active); in test [10] it was 28.3 µM (active).
Consider `CN(C)c1cc(NN=Cc2ccco2)nc(N(C)C)n1`, for which the IC50 is 17.5 µM (active) in test [3], > 99 µM (inactive) at Caspase-3 [4], 35 µM (active) in [5] and 75.6 µM (active) in [6].
Take `Cc1ccc(NC(=O)Nc2ccc(-c3c(C(C)C)sc4ncnc(N)c34)cc2)cc1`: the Ki at Aurora kinase A is 0.0794 µM (active); in test [14], > 100 µM (inactive).
Take `COc1cc(Nc2ncc(C(F)(F)F)c(N)n2)cc(OC)c1OC`: the Ki was 3.98 µM (active) in test [15], 0.2 µM (active) on Aurora kinase A and 0.0398 µM (active) at Aurora kinase B.
The matching figures for `NC(=O)c1cccc2[nH]c(-c3ccc(N4CCN(Cc5ccccc5)CC4)nc3)nc12`: 2 µM (active), 0.501 µM (active) and 0.02 µM (active).
